# From PubChem BioAssay AID2740 (NMMLSC, 2010)
# Calls of active or inactive are those of the source.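 How the source made its calls: active means compounds whose fitted half-maximal concentration for changing the GFP signal is at or below a set limit; inactive means the rest.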
# Experiment: TOR pathway RPL19A-GFP modulators, concentration series – cell-based, S. cerevisiae, flow cytometry, MLPCN hits, dose response (AID 2740);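 further: background is signal of the same compound in parental non-GFP s288c yeast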
# Conditions: S. cerevisiae RPL19A-GFP strain, flow cytometry fluorescence, 3 h; at 33 µM (top of the series)
row,SMILES,"GFP fluorescence, lower = active (kMESF (background-subtracted))"
1,CC(Oc1ccc2ccccc2c1)C(=O)NNC(=S)NC(=O)c1ccco1 (configuration not stated),34.3 (inactive)
2,CCC(=O)Oc1oc(-c2ccccc2)nc1C=Nc1ccc(C)cc1,40.5 (inactive)
3,CC(=O)Oc1ccc(N2C(=O)C3C4C=CC(CO)(O4)C3C2=O)cc1 (configuration not stated),38.8 (inactive)
4,COc1ccc(C(=O)NC(=S)NNC(=O)CCc2ccccc2)cc1,46.5 (inactive)
5,O=C(O)c1ccc2c(c1)C(=O)/C(=C/c1ccccc1)C2=O,36.8 (inactive)
6,Cc1ccc(C2=NOC(=O)/C2=C\c2ccc(C)o2)cc1,22 (inactive)
7,COc1ccc(C(=O)NNC(=S)NC(=O)/C=C/c2cccs2)cc1,47.4 (inactive)
8,CC(Oc1cccc(Cl)c1)C(=O)Nc1nc(-c2ccccn2)cs1 (configuration not stated),30 (inactive)
9,O=C(Oc1c(Cl)cc(Cl)c2cccnc12)c1cccc([N+](=O)[O-])c1,24.8 (inactive)
10,C[n+]1ccc(/C=C/c2c[nH]c3ccccc23)cc1,53.8 (inactive)
11,O=C(COc1ccccc1)NNC(=S)NC(=O)c1ccccc1,44.4 (inactive)
12,COc1ccc2c(c1)c(/C=C/c1cc[n+](C)cc1)cn2C,40 (inactive)
13,COc1ccc(Cl)cc1C(Nc1cccnc1)c1ccc2cccnc2c1O (configuration not stated),42.8 (inactive)
14,CCCCC1OC23CCCCC2C(C#N)(C(=N)O3)C1(C#N)C#N (configuration not stated),43.5 (inactive)
15,Cc1ccnc(N2C(=O)c3cccc4c([N+](=O)[O-])ccc(c34)C2=O)c1,56.1 (inactive)
16,C[C@@]12C(=O)OC(=O)[C@]1(C)C1CCC2O1,25.9 (inactive)
17,CN(C)/C=C/C(=O)c1ccc(-c2ccc(Cl)cc2Cl)o1,40.9 (inactive)
18,CC(C)(C)C1C/C(=C/c2ccccn2)C(=O)/C(=C/c2ccccn2)C1 (configuration not stated),41.4 (inactive)
19,CN1CCN(C(c2ccc(C(F)(F)F)cc2)c2ccc3cccnc3c2O)CC1 (configuration not stated),29.6 (inactive)
20,COc1cc(/C=C/c2ccc3c(Br)cc(Br)c(O)c3n2)ccc1O,29.4 (inactive)
21,O=C1C(Cl)=C(Nc2ccccc2O)C(=O)N1CCc1ccccc1,42.1 (inactive)

row,SMILES,"GFP fluorescence, lower = active (kMESF (background-subtracted))"
1,O=C1ON=C(c2ccc(Cl)cc2)/C1=C/c1ccc(O)cc1,40.8 (inactive)
2,O=[N+]([O-])c1cc(CN2CCN(c3cccc(C(F)(F)F)c3)CC2)c2cccnc2c1O,22.7 (inactive)
3,O=C(OCC(=O)N1CCN(C(=O)c2ccco2)CC1)c1cc(-c2ccc(Cl)c(Cl)c2Cl)nc2ccccc12,31.8 (inactive)
4,CCN(CC)c1ccc(/C=C2\C(=O)c3ccc(C(=O)O)cc3C2=O)cc1,51.5 (inactive)
5,CCOc1ccc(C(C)=O)cc1N1C(=O)C2C3C=CC(O3)C2C1=O (configuration not stated),42.4 (inactive)
6,Cc1ccsc1/C=C1\C(=O)NC(=S)N(C)C1=O,19.6 (inactive)
7,O=C(NNC(=S)NC(=O)c1ccco1)c1ccc(F)cc1,49.8 (inactive)
8,O=[N+]([O-])c1c(Nc2ccccn2)cc(Cl)c2nonc12,68.3 (inactive)
9,COc1cccc(/C=N/Nc2ccc([N+](=O)[O-])cn2)c1O,42.1 (inactive)
10,Cc1c(C)c2ccc(Oc3ccc([N+](=O)[O-])cc3C(F)(F)F)c(C)c2oc1=O,39.5 (inactive)
11,O=C(Oc1ccnc2cc(Cl)ccc12)N1CCOCC1,37.6 (inactive)
12,CC(OC(=O)c1ccco1)C(=O)Nc1nc(-c2ccccc2)cs1 (configuration not stated),37.1 (inactive)
13,CN(C)NC(=S)Nc1ccc(S(=O)(=O)N2CCCCC2)cc1,44.8 (inactive)
14,CC1(C)OC(c2ccccc2)=C/C(=C/C=C2C(=O)NC(=S)NC2=O)O1,37 (inactive)
15,Oc1ccc2ccccc2c1N=Nc1nccs1,51 (inactive)
16,COc1ccc(C2=CC(=O)N(Nc3ccccc3)C2=O)cc1,34.6 (inactive)
17,CCc1nc2ccccc2c(=O)n1NC(=O)c1c(O)c2cccc3c2n(c1=O)CCC3,25.5 (inactive)
18,COc1ccc(-c2cc3nc4n(c(=O)c3s2)CCC4)cc1,21.6 (inactive)
19,COc1cc(SSc2cc(OC)cc([N+](=O)[O-])c2N)c(N)c([N+](=O)[O-])c1,32.6 (inactive)
20,O=C1c2ccccc2C(=O)C2OC12 (configuration not stated),29.2 (inactive)
21,Cc1cc(Br)c2c(c1)/C(=C/C(=O)c1cccs1)C(=O)N2,40.3 (inactive)

row,SMILES,"GFP fluorescence, lower = active (kMESF (background-subtracted))"
1,COc1cc(CNC(=O)CCCCCCC(C)C)ccc1O,48.5 (inactive)
2,Cc1ccc2nc(/C(C#N)=C/c3ccc(O)c(O)c3)[nH]c2c1,43.8 (inactive)
3,O=C(NCc1ccc2c(c1)OCO2)c1nc(S(=O)(=O)Cc2ccccc2)ncc1Cl,43.5 (inactive)
4,O=C(CS(=O)c1ccccc1[N+](=O)[O-])Oc1ccc(Br)cc1 (configuration not stated),39.1 (inactive)
5,O=C(/C=C/c1ccccc1)NC(=S)NNC(=O)Cc1cccs1,45.5 (inactive)
6,CCN(CC)C(=O)Oc1ccnc2cc(Cl)ccc12,41.8 (inactive)
7,CCc1cc(C(=O)Nc2nc(-c3ccccn3)cs2)sc1C,23.7 (inactive)
8,COc1ccc(NC(=O)/C(Cl)=C(/Cl)S(=O)Cc2ccccc2)cn1 (configuration not stated),35.8 (inactive)
9,Cc1ccc(S(=O)(=O)N2CC(C(=O)O)=CC[C@H]2c2ccc(Cl)cc2)cc1,37.3 (inactive)
10,CN(c1ccccc1)c1ccc(/C=c2\s/c(=C(/C#N)C(=O)C(C)(C)C)n(Cc3ccco3)c2=O)cc1,56 (inactive)
11,COc1ccc(/C=C2\C(=O)ON=C2c2ccccc2)cc1,24.9 (inactive)
12,O=C(NNC(=S)NC(=O)C12CC3CC(CC(C3)C1)C2)c1ccncc1,46.9 (inactive)
13,O=C(O)c1ccc(COc2ccccc2C=C2C(=O)c3ccccc3C2=O)cc1,38.9 (inactive)
14,O=C1C(Cl)=C(N2CCN(Cc3ccccc3)CC2)C(=O)N1c1ccccc1,40.2 (inactive)
15,COc1cccc(N=Cc2nc(-c3ccccc3)oc2OC(C)=O)c1,41.9 (inactive)
16,O=C(O)c1cccc(S(=O)(=O)Nc2ccc(S(=O)(=O)N3CCOCC3)cc2)c1,38.7 (inactive)
17,CCCc1cc(NCc2ccccn2)n2nc(C)c(-c3ccccc3)c2n1,39.1 (inactive)
18,Cc1nn2c(NCc3ccccn3)c3c(nc2c1-c1ccccc1)CCC3,44.3 (inactive)
19,CC(C)Cn1c(=O)c(C(=O)Nc2ccncc2)c(O)c2ccccc21,5.71 (inactive)
20,O=C(/C=C/c1ccc(Cl)c([N+](=O)[O-])c1)c1cccnc1,36.9 (inactive)
21,O=C(O)/C=C/C(=O)c1ccc2c(c1)CCc1ccccc1-2,16.8 (inactive)

row,SMILES,"GFP fluorescence, lower = active (kMESF (background-subtracted))"
1,O=C(CCc1ccccc1)NNC(=S)NC(=O)c1ccccc1,44.5 (inactive)
2,Nc1ccccc1SC(C[N+](=O)[O-])c1ccccc1 (configuration not stated),38.1 (inactive)
3,COc1ccc([N+](=O)[O-])c(S(=O)(=O)c2ccccc2)n1,39.1 (inactive)
4,COc1ccccc1[C@@]1(C)ON(c2ccccc2C(F)(F)F)C1=O,22.7 (inactive)
5,O=C(/C=C/c1cc(Br)ccc1O)c1ccco1,33.5 (inactive)
6,COc1ccc(N2C(=O)C(Cl)=C(NCc3ccccc3)C2=O)cc1,44.3 (inactive)
7,Oc1c(C(Nc2cccc(C(F)(F)F)c2)c2ccncc2)ccc2cccnc12 (configuration not stated),45.3 (inactive)
8,CC(Oc1cc2oc(=O)c3c(c2cc1Cl)CCC3)C(=O)NCCN1CCOCC1 (configuration not stated),37.8 (inactive)
9,Cc1ccc2c(c1)c(/C=C/c1cc[n+](C)cc1)c(C)n2C,40.7 (inactive)
10,CCOc1ccc(NC2=C(Cl)C(=O)N(Cc3ccccc3)C2=O)cc1,44.3 (inactive)
11,COc1ccc(/C=C2/C(=O)ON=C2c2ccccc2)cc1OC,39.5 (inactive)
12,COc1ccc2c(/C=C/c3cc[n+](C)cc3)c[nH]c2c1,39 (inactive)
13,COc1ccc(C=C2C(=O)c3ccccc3C2=O)cc1O,38.1 (inactive)
14,COc1ccc(NC2=C(Cl)C(=O)N(CCc3ccccc3)C2=O)cc1,41.6 (inactive)
15,COc1ccc(OCC(=O)NNC(=S)NC(=O)C2CCCCC2)cc1,38 (inactive)
16,Cc1ccc(NC(=O)ON=C2CCCC2)cc1,39.3 (inactive)
17,N/C(=N\OC(=O)c1cccc(Br)c1)c1ccccc1,40.8 (inactive)
18,COc1ccc(NC(=O)/C(C#N)=C/c2ncc([N+](=O)[O-])n2C)c(OC)c1,41.5 (inactive)
19,COc1ccc(C2(C)ON(c3ccccc3C(F)(F)F)C2=O)cc1 (configuration not stated),34.3 (inactive)
